In patent US20230270692A1, “COMPOUNDS FOR CHRONIC DISORDERS” (Pillai Universal LLC, priority 2020, published 2023):
Read-outs that look alike come from different tables or passages of the source.

How the values were obtained:
[1] = tested on: panel of human normal cell lines; experiment: MTT cytotoxicity of anticancer agents on normal cell lines, alone and with Compound I; settings: Homo sapiens, read-out: IC50 (average)
Experimental: The cytotoxicity of anticancer agents was studied using a panel of human normal cell lines alone and with the combination of Compound I of the present invention. The cytotoxicity effect was determined by MTT assay. The following cell lines were used: Human epidermal keratinocytes cells (HaCaT), Human dermal fibroblast (HDF), Human bone marrow mesenchymal stem cells (HBMSCs), Human normal hepatocytes cells (THLE2), Human cardiac cells (AC-16), Human intestinal epithelial cells (HIEC-6), Human neuronal cells (SHSY-5Y), Human vascular Endothelial cells (HuVECs), Human lung epithelial cells (Calu-3), Human lung fibroblast (MRC 5).
Next, the cells were treated with anticancer agents in combination with Compound I of the present invention.

[2] = tested on: xenograft nude mice models (triple-negative breast cancer, pancreatic, liver, colon cancer); experiment: In vivo metastasis / stage IV tumor studies in xenograft nude mice versus standard drugs
[3] = tested on: xenograft nude mice models (triple-negative breast cancer, pancreatic, liver, colon cancer); settings: mouse, in vivo
PANC-1 xenograft = PANC-1 xenograft mouse model; format: in vivo; settings: day 5 to day 30; 25 mg/kg gemcitabine, 10 mg/kg Compound I
Experimental: Study Design: A PANC-1 xenograft mouse model was carried out according to the experimental design described in FIG. 21A. Tumor volume was monitored over a 30-day period upon administration of PBS alone (vehicle control), 25 mg/kg gemcitabine, and 10 mg/kg Compound I.

normal pancreatic cells = experiment: Viability of normal pancreatic cells; format: cell-based, Human; settings: at 6 h
Experimental: (§1) The synthesized compounds of Formula 1-4 were evaluated for cell proliferation, apoptosis, cell cycle arrest, the generation of reactive oxygen species and calcium were measured using MTT assay and flow cytometry, respectively. The expression of apoptosis- and proliferation-related proteins was determined by western blotting. The effect of molecules on apoptosis-related mRNA expression in cancer cells was detected by RT-PCR.
(§2) Changes in cell morphology were detected by the presence of cell membrane blebbing, chromatin condensation, and formation of apoptotic bodies (FIG. 10A).

[4] = tested on: Pancreatic adenocarcinoma cells (PANC); experiment: MTT cell viability of pancreatic cancer cells; format: cell-based, Human; settings: Homo sapiens, Pancreatic cancer cell
Experimental: as §1, §2

For CCc1c2c(nc3ccc(OC(=O)N4CCC(N5CCCCC5)CC4)cc13)-c1cc3c(c(=O)n1C2)COC(=O)[C@]3(O)CC [Irinotecan], the IC50 [1] was 12.9 to 40.5 µM.
With COc1cccc2c1C(=O)c1c(O)c3c(c(O)c1C2=O)C[C@@](O)(C(=O)CO)C[C@@H]3O[C@H]1C[C@H](N)[C@H](O)[C@H](C)O1 [Doxorubicin] the IC50 [1] was 12.9 to 40.5 µM.
Nc1ccn([C@@H]2O[C@H](CO)[C@@H](O)C2(F)F)c(=O)n1 [Gemcitabine] was tested, and the “CSCs (target on CSCs population)” value ([2]; mouse, in vivo) was 5% Target on, the mortality ([2]; nude, mouse, in vivo) was 50% and the mortality ([2]; treating stage IV cancer) was 50%. The Toxicity [3] was “Developed”, the IC50 [1] was 12.9 to 40.5 µM and the tumor volume (PANC-1 xenograft) was “steadily increases”.
In the case of Nc1cccc2c1CN(C1CCC(=O)NC1=O)C2=O (stereo not shown) [Revlimid], the mortality ([2]; nude, mouse, in vivo) is reported as 100%, the mortality ([2]; treating stage IV cancer) is reported as 100% and the Toxicity [3] is reported as “Cardiotoxicity, Hepatotoxicity, Toxicity to vital organs and normal tissues”.
In the case of O=c1[nH]cc(F)c(=O)[nH]1 [5-Fluorouracil], the Toxicity (normal pancreatic cells) is reported as 40.32±0.98%, the “Antioxidant Activity (increased antioxidant parameters)” value ([2]; mouse, in vivo) is reported as 10% of and the “Tumor volume (reduction / changes)” value ([2]; mouse, in vivo) is reported as 35%. The mortality ([2]; nude, mouse, in vivo) was 70%, the mortality ([2]; treating stage IV cancer) was 70% and the Toxicity [3] was “Cardiotoxicity, Hepatotoxicity”. The cytotoxicity at 10 µM ([4]; 3 h, read-out: decrease in viable cells) was 30.21 ± 0.21%, the IC50 ([4]; PANC cells, after 24 hours of exposure) was 5.21 ± 0.19 µM and the IC50 [1] was 12.9 to 40.5 µM.
With CCN(CC)CCCC(C)Nc1ccnc2cc(Cl)ccc12 (stereo not shown) [Chloroquine] the IC50 [1] was 12.9 to 40.5 µM.
“Avastin: current treatment standard drug, Inhibition of VEGF” was tested, and the “Metastasis (prevention)” value ([2]; mouse, in vivo) was 10%, the Toxicity ([2]; mouse, in vivo) was “Toxic to vital” and the “Tumor volume (reduction / changes)” value ([2]; mouse, in vivo) was 20%. The mortality ([2]; mouse, in vivo) was 60% and the mortality ([2]; treating stage IV cancer) was 60%.
CC[C@]1(O)C[C@H]2CN(CCc3c([nH]c4ccccc34)[C@@](C(=O)OC)(c3cc4c(cc3OC)N(C=O)[C@H]3[C@@](O)(C(=O)OC)[C@H](OC(C)=O)[C@]5(CC)C=CCN6CC[C@]43[C@@H]65)C2)C1 [Vincristine] was tested, and the IC50 [1] was 12.9 to 40.5 µM.
With CCN(CCO)CCCC(C)Nc1ccnc2cc(Cl)ccc12 (stereo not shown) [Hydroxychloroquine] the IC50 [1] was 12.9 to 40.5 µM.
